How the values were obtained:
EP2 = EP2 (Homo sapiens (Human), UniProt P43116);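 note: antagonism of PGE2-stimulated cAMP accumulation in SF295 human glioblastoma cells with endogenous EP2, cAMP read by HTRF, expressed relative to DMSO control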
Excerpt: Human tumor cell lines expressing endogenously either EP4 or EP2 are used and cAMP accumulation in cells upon PGE2 stimulation is monitored. SF295 glioblastoma cells express high endogenous EP2 and no EP4, whereas BT549 breast cancer cells, express high endogenous EP4 levels and very low EP2 levels.
As a detection method for cAMP the HTRF (homogeneous time resolved fluorescence) Cisbio kit (HTRF cAMP dynamic 2 kit 20′000 tests Cisbio Cat. #62AM4PEC) was used, which is based on a competitive immunoassay using a Cryptate-labeled anti-cAMP antibody and d2-labeled cAMP. Native cAMP produced by cells or unlabeled cAMP (for the standard curve) compete with exogenously added d2-labeled cAMP (acceptor) for binding to monoclonal anti-cAMP-Eu3+Cryptate (donor). A FRET signal (Fluorescence Resonance Energy Transfer) is obtained only if the labeled anti-cAMP antibody binds the d2 labelled cAMP, thus the specific signal (i.e. energy transfer) is inversely proportional to the concentration of cAMP in the standard or sample.
The SF295 cells (NCI/No. 0503170) are detached from culture dishes with a cell dissociation buffer (Invitrogen, 13151-014), and collected in growing medium (GM: RPM11640 (Invitrogen 21875)/10% FCS, 1% Penicilin/streptomycin). Cells are counted washed and resuspended in assay buffer (AB; HBSS, 20 mM HEPES, 0.2% BSA; 2 mM IBMX). 4,000 cells in 5 μl of AB are seeded per well of a small volume 384 well plate (black with flat bottom, Greiner 784076).
PGE2 (Cayman 14010, stock solution: 75 μM in DMSO) is used as agonist at 75 nM final concentration, corresponding to EC80.
Two point five microliters of diluted compounds are transferred into the assay plate. Plate is pre-incubated 45 minutes at room temperature. Subsequently, 2.5 microliters of PGE2 (final conc. 75 nM) are transferred into the assay plate. Plate is incubated 30 minutes at room temperature. Five μl of each donor (anti-cAMP cryptate) and acceptor (cAMP-d2) are added and the plate is incubated another hour at room temperature in the dark and then read using a BMG LABTECH PHERAstar reader (Excitation: 337 nm, Emission: 620 and 665 nm).
The obtained Delta F (fluorescence) values (665 nm/620 nM) are converted into % cAMP values using the measurements of the cAMP calibrator provided in the kit. For each compound concentration the percentage of cAMP compared to DMSO control value as average±STDEV (each concentration is measured in duplicate) is calculated.
IC50 values and curves are generated with XLfit software (IDBS) using Dose-Response One Site model 203. When compounds were measured multiple times, mean values are given.

EP4 = EP4 (Homo sapiens (Human), UniProt P35408); assay: hEP4 cAMP assay (BT549 breast cancer cells, HTRF cAMP); format: cell-based
Procedure: Plate is pre-incubated 45 minutes at room temperature. Subsequently, 2.5 microliters of PGE2 (final conc. 6 nM) are transferred into the assay plate. Plate is incubated 30 minutes at room temperature.

[1] = antagonistic activity, mean values where measured multiple times

Sequence of EP2 (P43116 whole entry): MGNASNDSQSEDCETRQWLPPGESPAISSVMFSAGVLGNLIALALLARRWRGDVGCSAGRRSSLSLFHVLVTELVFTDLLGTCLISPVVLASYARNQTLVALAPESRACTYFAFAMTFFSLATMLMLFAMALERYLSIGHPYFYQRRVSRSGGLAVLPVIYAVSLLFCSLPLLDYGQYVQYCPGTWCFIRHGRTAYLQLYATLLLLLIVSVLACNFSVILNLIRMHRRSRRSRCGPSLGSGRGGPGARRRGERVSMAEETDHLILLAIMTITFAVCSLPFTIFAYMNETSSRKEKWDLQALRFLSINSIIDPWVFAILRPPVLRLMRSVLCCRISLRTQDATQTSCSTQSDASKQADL
Sequence of EP4 (P35408 whole entry): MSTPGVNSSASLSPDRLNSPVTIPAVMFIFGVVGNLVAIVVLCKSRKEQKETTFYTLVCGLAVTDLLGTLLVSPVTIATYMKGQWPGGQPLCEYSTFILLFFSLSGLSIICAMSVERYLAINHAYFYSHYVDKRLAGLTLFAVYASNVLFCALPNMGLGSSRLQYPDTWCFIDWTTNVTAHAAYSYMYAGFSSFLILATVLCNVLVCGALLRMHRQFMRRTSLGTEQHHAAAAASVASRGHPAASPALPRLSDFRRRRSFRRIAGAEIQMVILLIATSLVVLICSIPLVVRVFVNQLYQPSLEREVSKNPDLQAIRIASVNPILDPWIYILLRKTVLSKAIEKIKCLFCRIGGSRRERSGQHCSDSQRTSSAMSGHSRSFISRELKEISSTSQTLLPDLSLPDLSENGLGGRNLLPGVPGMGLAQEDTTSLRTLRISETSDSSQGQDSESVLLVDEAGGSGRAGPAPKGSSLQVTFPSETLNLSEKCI

SMILES	IC50 (EP2)	IC50 (EP4; [1])	IC50 (EP4; (*): measured using the cAMP assay)
COc1cncc(-c2ccc(-c3cc(NCCn4c(C)cc5c(OC)cc(F)cc54)ncn3)cc2)n1 [Example 761, [2-(6-Fluoro-4-methoxy-2-methyl-indol-1-yl)-ethyl]-{6-[4-(6-methoxy-pyrazin-2-yl)-phenyl]-pyrimidin-4-yl}-amine]	40 nM	161 nM	
COc1cc(F)cc2c1cc(C)n2CCNc1cc(-c2ccc(-c3ncc(F)cn3)cc2)ncn1 [Example 762, [2-(6-Fluoro-4-methoxy-2-methyl-indol-1-yl)-ethyl]-{6-[4-(5-fluoro-pyrimidin-2-yl)-phenyl]-pyrimidin-4-yl}-amine]	98 nM	304 nM	
COc1cc(F)cc2c1cc(C)n2CCNc1cc(-c2ccc(-c3cc(N(C)C)ncn3)cc2)ncn1 [Example 763, 6-(4-(6-((2-(6-Fluoro-4-methoxy-2-methyl-1H-indol-1-yl)ethyl)amino)pyrimidin-4-yl)phenyl)-N,N-dimethylpyrimidin-4-amine]	25 nM	139 nM	
Cc1cc2ccccc2n1CCNc1cc(-c2ccc(-c3nccs3)cc2)ncn1 [Example 764, [2-(2-Methyl-indol-1-yl)-ethyl]-[6-(4-thiazol-2-yl-phenyl)-pyrimidin-4-yl]-amine]	8 nM	815 nM	
CCOc1cc(-c2cc(NCCn3c(C)cc4c(OC)ccc(F)c43)ncn2)ccc1C(=O)NOC [Example 765, 2-Ethoxy-4-{6-[2-(7-fluoro-4-methoxy-2-methyl-indol-1-yl)-ethylamino]-pyrimidin-4-yl}-N-methoxy-benzamide]	13 nM	403 nM	
CCONC(=O)c1ccc(-c2cc(NCCn3c(C)cc4c(OC)ccc(F)c43)ncn2)cc1OCC [Example 767, 2,N-Diethoxy-4-{6-[2-(7-fluoro-4-methoxy-2-methyl-indol-1-yl)-ethylamino]-pyrimidin-4-yl}-benzamide]	20 nM	251 nM	
CCOc1cc(-c2cc(NCCn3c(C)cc4c(C)ccc(F)c43)ncn2)ccc1C(=O)NOCc1ccccc1 [Example 768, N-Benzyloxy-2-ethoxy-4-{6-[2-(7-fluoro-2,4-dimethyl-indol-1-yl)-ethylamino]-pyrimidin-4-yl}-benzamide]	35 nM	928 nM	
CCOc1cc(-c2cc(NCCn3c(C)cc4c(OC)ccc(F)c43)ncn2)ccc1C(=O)NOC(C)C [Example 770, 2-Ethoxy-4-{6-[2-(7-fluoro-4-methoxy-2-methyl-indol-1-yl)-ethylamino]-pyrimidin-4-yl}-N-isopropoxy-benzamide]	16 nM	374 nM	
Cc1cc2ccccc2n1CCNc1cc(-c2ccc3c(=O)[nH][nH]c3c2)ncn1 [Example 772, 6-{6-[2-(2-Methyl-indol-1-yl)-ethylamino]-pyrimidin-4-yl}-1,2-dihydro-indazol-3-one]	15 nM	317 nM	
COc1ccc(F)c2c1cc(C)n2CCNc1cc(-c2ccc3c(=O)[nH][nH]c3c2)ncn1 [Example 773, 6-{6-[2-(7-Fluoro-4-methoxy-2-methyl-indol-1-yl)-ethylamino]-pyrimidin-4-yl}-1,2-dihydro-indazol-3-one]	32 nM	49 nM	
Cc1cc2ccccc2n1CCNc1cc(-c2ccc3c(=O)[nH]oc3c2)ncn1 [Example 774, 6-{6-[2-(2-Methyl-indol-1-yl)-ethylamino]-pyrimidin-4-yl}-benzo[d]isoxazol-3-one]	4 nM	637 nM	
CCOc1cc(-c2cc(NCCn3c(Cl)cc4c(OC)ccc(Cl)c43)ncn2)ccc1C(=O)O [Example 775, 4-{6-[2-(2,7-Dichloro-4-methoxy-indol-1-yl)-ethylamino]-pyrimidin-4-yl}-2-ethoxy-benzoic acid]	10 nM	206 nM	
CCOc1cc(-c2cc(NCCn3c(Cl)cc4c(OC)ccc(F)c43)ncn2)ccc1C(=O)O [Example 776, 4-{6-[2-(2-Chloro-7-fluoro-4-methoxy-indol-1-yl)-ethylamino]-pyrimidin-4-yl}-2-ethoxy-benzoic acid]	6 nM	44 nM	
CCOc1cc(-c2cc(NCCn3c(Cl)cc4c(OC)ccc(F)c43)ncn2)sc1C(=O)O [Example 777, 5-{6-[2-(2-Chloro-7-fluoro-4-methoxy-indol-1-yl)-ethylamino]-pyrimidin-4-yl}-3-ethoxy-thiophene-2-carboxylic acid]	2 nM	3 nM	
CCOc1cc(-c2cc(NCCn3c(Cl)cc4c(Cl)ccc(F)c43)ncn2)ccc1C(=O)O [Example 778, 4-{6-[2-(2,4-Dichloro-7-fluoro-indol-1-yl)-ethylamino]-pyrimidin-4-yl}-2-ethoxy-benzoic acid]	15 nM	175 nM	
CCOc1cc(-c2cc(NCCn3c(Cl)cc4c(C)ccc(F)c43)ncn2)ccc1C(=O)O [Example 779, 4-{6-[2-(2-Chloro-7-fluoro-4-methyl-indol-1-yl)-ethylamino]-pyrimidin-4-yl}-2-ethoxy-benzoic acid]	28 nM	242 nM	

SMILES	IC50 (EP2)	IC50 (EP4; [1])	IC50 (EP4; (*): measured using the cAMP assay)
CCOc1cc(-c2cc(NCCn3c(C)cc4c(Br)cccc43)ncn2)ccc1C(=O)O [Example 780, 4-{6-[2-(4-Bromo-2-methyl-indol-1-yl)-ethylamino]-pyrimidin-4-yl}-2-ethoxy-benzoic acid]	6 nM	826 nM	
CCOc1cc(-c2cc(NCCn3c(C)cc4c(Br)cccc43)ncn2)sc1C(=O)O [Example 781, 5-{6-[2-(4-Bromo-2-methyl-indol-1-yl)-ethylamino]-pyrimidin-4-yl}-3-ethoxy-thiophene-2-carboxylic acid]	1 nM	18 nM	
COc1c(F)cc(Cl)c2c1cc(C)n2CCNc1cc(-c2ccc3c(=O)[nH][nH]c3c2)ncn1 [Example 782, 6-{6-[2-(7-Chloro-5-fluoro-4-methoxy-2-methyl-indol-1-yl)-ethylamino]-pyrimidin-4-yl}-1,2-dihydro-indazol-3-one]	39 nM	91 nM	
COc1c(F)cc(Cl)c2c1cc(C)n2CCNc1cc(-c2ccc3[nH][nH]c(=O)c3c2)ncn1 [Example 783, 5-{6-[2-(7-Chloro-5-fluoro-4-methoxy-2-methyl-indol-1-yl)-ethylamino]-pyrimidin-4-yl}-1,2-dihydro-indazol-3-one]	271 nM	912 nM	
Cc1ccc(F)c2c1cc(C)n2CCNc1cc(-c2ccc(-c3csc(CC(N)=O)n3)cc2)ncn1 [Example 784, 2-[4-(4-{6-[2-(7-Fluoro-2,4-dimethyl-indol-1-yl)-ethylamino]-pyrimidin-4-yl}-phenyl)-thiazol-2-yl]-acetamide]	63 nM	512 nM	
COc1cccc2c1cc(C)n2CCNc1cc(-c2ccc(-c3csc(CC(N)=O)n3)cc2)ncn1 [Example 785, 2-[4-(4-{6-[2-(4-Methoxy-2-methyl-indol-1-yl)-ethylamino]-pyrimidin-4-yl}-phenyl)-thiazol-2-yl]-acetamide]	13 nM	906 nM	
COc1ccc(F)c2c1cc(C)n2CCNc1cc(-c2ccc(-c3csc(CC(N)=O)n3)cc2)ncn1 [Example 786, 2-[4-(4-{6-[2-(7-Fluoro-4-methoxy-2-methyl-indol-1-yl)-ethylamino]-pyrimidin-4-yl}-phenyl)-thiazol-2-yl]-acetamide]	16 nM	319 nM	
CCOc1cc(-c2cc(NCCn3c(C)cc4c(C)c(F)c(F)cc43)ncn2)ccc1C(=O)O [Example 787, 4-{6-[2-(5,6-Difluoro-2,4-dimethyl-indol-1-yl)-ethylamino]-pyrimidin-4-yl}-2-ethoxy-benzoic acid]	21 nM	729 nM	
Cc1ccc(Cl)c2c1cc(C)n2CCNc1cc(-c2ccc(C(=O)O)c(S/C=C/F)c2)ncn1 [Example 788, 4-{6-[2-(7-Chloro-2,4-dimethyl-indol-1-yl)-ethylamino]-pyrimidin-4-yl}-2-((E)-2-fluoro-vinylsulfanyl)-benzoic acid]	49 nM	925 nM	
Cc1cc2ccccc2n1CCNc1cc(-c2ccc(-c3nnn[nH]3)c(O)c2)ncn1 [Example 789, 5-{6-[2-(2-Methyl-indol-1-yl)-ethylamino]-pyrimidin-4-yl}-2-(1H-tetrazol-5-yl)-phenol]	6 nM	923 nM	
CCOC(=O)c1sc(-c2cc(NCCn3c(C)cc4c(OC)ccc(F)c43)ncn2)cc1OCC [Example 790, 3-Ethoxy-5-{6-[2-(7-fluoro-4-methoxy-2-methyl-indol-1-yl)-ethylamino]-pyrimidin-4-yl}-thiophene-2-carboxylic acid ethyl ester]	42 nM	101 nM	
COc1ccc(F)c2c1cc(C)n2CCNc1cc(-c2ccc(C3(C(=O)O)CCCC3)cc2)ncn1 [Example 791, 1-(4-{6-[2-(7-Fluoro-4-methoxy-2-methyl-indol-1-yl)-ethylamino]-pyrimidin-4-yl}-phenyl)-cyclopentanecarboxylic acid]	325 nM	639 nM	
Cc1cc2ccccc2n1CCNc1cc(-c2ccc(-c3nnn[nH]3)s2)ncn1 [Example 792, [2-(2-Methyl-indol-1-yl)-ethyl]-{6-[5-(1H-tetrazol-5-yl)-thiophen-2-yl]-pyrimidin-4-yl}-amine]	2 nM	227 nM	
COc1ccc(F)c2c1cc(C)n2CCNc1cc(-c2ccc(-c3nnn[nH]3)s2)ncn1 [Example 793, [2-(7-Fluoro-4-methoxy-2-methyl-indol-1-yl)-ethyl]-{6-[5-(1H-tetrazol-5-yl)-thiophen-2-yl]-pyrimidin-4-yl}-amine]	3 nM	18 nM	
CCOc1cc(-c2cc(NCCn3c(C#N)cc4c(OC)ccc(F)c43)ncn2)sc1C(=O)NS(=O)(=O)C1CC1 [Example 816, Cyclopropanesuifonic acid (5-{6-[2-(2-cyano-7-fluoro-4-methoxy-indol-1-yl)-ethylamino]-pyrimidin-4-yl}-3-ethoxy-thiophene-2-carbonyl)-amide]	24 nM		15 nM

Source: patent US12011444B2, “N-substituted indole derivatives as PGE2 receptor modulators” (Idorsia Pharmaceuticals Ltd, priority 2015, dated 2024)
